Reference: patent US20100221763A1, “Specific Acceptors for Transferases to Saccharides and Method for Obtaining and Using Same” (Health Research, Inc, priority 2005, published 2010)
Values joined by “and” are separate entries in the source; they are usually repeats but may differ in a detail not shown here. Equal values may be shown once. Marks after values point to notes of the source that are not given here.

Experiments:
[1] = target: T1, Rat recombinant α2,6(N)ST (Rattus norvegicus, UniProt P13721); test: Sialyltransferase assay with cloned α2,6(N)ST; type: biochemical; settings: for Sialyltransferase activity (%) Cloned α2,6(N)ST: Table I, acceptor 7.5 mM, 100% = 43500 CPM (Galβ1,4GlcNAcβ-O—Al); for Cloned Sialyltransferase Activities α2,6(N)ST %: Table III, compound 7.5 mM, 100% = 30440 CPM (Galβ1,4GlcNAcβ1,6(3-O-MeGalβ1,3)GalNAcα-O-Bn)
T1 construct: purchased Calbiochem
T1 sequence (P13721 1-403): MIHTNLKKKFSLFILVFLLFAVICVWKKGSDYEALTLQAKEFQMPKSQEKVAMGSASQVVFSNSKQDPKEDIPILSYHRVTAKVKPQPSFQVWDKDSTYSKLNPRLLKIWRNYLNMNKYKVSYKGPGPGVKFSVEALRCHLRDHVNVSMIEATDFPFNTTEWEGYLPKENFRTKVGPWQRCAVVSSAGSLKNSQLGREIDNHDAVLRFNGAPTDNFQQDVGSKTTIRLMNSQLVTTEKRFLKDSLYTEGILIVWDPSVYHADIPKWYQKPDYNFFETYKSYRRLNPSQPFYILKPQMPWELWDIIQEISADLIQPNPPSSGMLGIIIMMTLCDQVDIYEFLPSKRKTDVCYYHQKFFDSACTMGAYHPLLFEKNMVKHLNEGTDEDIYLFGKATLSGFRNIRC
Description: (§1) Rat recombinant α2,3(O)ST, α2,3(N)ST and α2,6(N)ST were purchased from Calbiochem and stored at either −20° C. or −70° C. as recommended by the supplier. […] 10 μl aliquots of the diluted enzymes were used in the assays run in duplicate.
(§2) The incubation mixtures run in duplicate contained 0.1M NaCacodylate buffer pH6.0, the acceptor (typically at 7.5 mM, or as indicated in some experiments), CMP-[9 ^3H] NeuAc (typically 0.2 μci; 20 μci/nmol or as indicated in some experiments) and the enzyme in a total volume of 20 μl. The control incubation mixtures contained everything except the acceptor. Incubation was carried out for 2 h at 37° C. The enzymatic transfer of [9-^3H] NeuAc to a typical acceptor was linear for 2 h and less than 30% CMP-[9-^3H] NeuAc was utilized. Chromatography, using either Dowex-1-Formate, Sep-Pak C18 or Biogel P2, was applied to separate radioactive product from un-reacted [9-^3H] NeuAc as described below.
(§3) The radioactive products from neutral allyl and methyl glycosides as well as non-glycosides were measured by fractionation on Dowex-1-Formate (Bio-Rad: AG-1X8; 200-400 mesh; format form) as follows: The incubation mixture was diluted with 1.0 ml water and passed through AG-1-formate column (1.0 ml bed volume in a Pasteur pipet which had been washed with 5 ml of 2M Formic acid followed by 10 ml water). The column was washed twice with 1.0 ml water after the entry of the sample and then eluted with 3.0 ml of 0.1M NaCl. The radioactivity present in water and 0.1M NaCl eluates were measured separately using 3a70 scintillation cocktail (Research Products International, Mount Prospect, Ill.) and a Beckman LS6500 scintillation counter. The CPM values were corrected by subtracting the blank CPM. Any radioactivity present in the water eluate (as noticed in the case of some methylglycosides) was added to the corresponding CPM value of 0.1M NaCl eluate. The radioactive products from sulfated and/or sialylated methylglycosides were also measured by the above procedure, only the elution of the AG-1-Formate column was continued further with 3.0 ml of 0.2M NaCl for achieving a complete elution of the radioactive product, a correction being made as before by subtracting the corresponding blank values.
(§4) The radioactive products from benzylglycosides and monosialylated benzylglycosides were measured by hydrophobic chromatography on Sep-Pak C18 cartridge (Waters, Milford, Mass.) and eluting the product with 3.0 ml methanol (30). The radioactivity was determined by liquid scintillation as above.
(§5) For such work, a Biogel P2 column (Fine Mesh; 1.0×116.0 cm) was used with 0.1M pyridine acetate pH5.4 as the eluent at room temperature. The effluent fractions were monitored for radioactivity and the first peak containing radioactivity was collected, lyophilized to dryness, dissolved in 200 μl of water and stored frozen at −20° C. for thin layer chromatography (TLC) and other experimentation.

LNCaP α2,3(O)ST = test: Sialyltransferase assay with LNCaP cell extract; type: biochemical, human; settings: for LNCaPα2,3(O)ST %: Table III, compound 7.5 mM, 100% = 30100 CPM (3-O-MeGalβ1,4GlcNAcβ1,6(Galβ1,3)GalNAcα-O-Bn)
Description: The prostate carcinoma cell line, LNCaP, was grown in RPMI 1640 supplemented with 10% fetal bovine serum and antibiotics (penicillin, streptomycin and amphotericin B) under conditions recommended by American Type Culture Collection (Manassas, Va.). The cells were homogenized with 0.1M Tris-Maleate pH6.3 containing 2% Triton X-100 using a Dounce all glass hand-operated homogenizer. The homogenate was centrifuged at 16,000 g for 1 h at 4° C. Protein concentration in supernatant was measured using the BCA assay (Pierce Biotech, Inc., Rockford, Ill.), with BSA as the standard. The supernatant was adjusted to 5 mg protein/ml by adding the necessary amount of extraction buffer and then stored frozen at −20° C. until use. 10 μl aliquot of this extract was used in assays run in duplicate.
as §2, §3, §4, §5

[2] = target: T2, Rat recombinant α2,3(O)ST (Rattus norvegicus, UniProt Q11205); test: Sialyltransferase assay with cloned α2,3(O)ST; type: biochemical; settings: for Cloned Sialyltransferase Activities α2,3(O) ST %: Table III, compound 7.5 mM, 100% = 39200 CPM (3-O-MeGalβ1,4GlcNAcβ1,6(Galβ1,3)GalNAcα-O-Bn); for Sialyltransferase activity (%) Cloned α2,3(O)ST: Table I, acceptor 7.5 mM, 100% = 40560 CPM (3-O-MeGalβ1,4GlcNAcβ1,6(Galβ1,3)GalNAcα-O-Bn)
T2 construct: purchased Calbiochem
T2 sequence (Q11205 1-350): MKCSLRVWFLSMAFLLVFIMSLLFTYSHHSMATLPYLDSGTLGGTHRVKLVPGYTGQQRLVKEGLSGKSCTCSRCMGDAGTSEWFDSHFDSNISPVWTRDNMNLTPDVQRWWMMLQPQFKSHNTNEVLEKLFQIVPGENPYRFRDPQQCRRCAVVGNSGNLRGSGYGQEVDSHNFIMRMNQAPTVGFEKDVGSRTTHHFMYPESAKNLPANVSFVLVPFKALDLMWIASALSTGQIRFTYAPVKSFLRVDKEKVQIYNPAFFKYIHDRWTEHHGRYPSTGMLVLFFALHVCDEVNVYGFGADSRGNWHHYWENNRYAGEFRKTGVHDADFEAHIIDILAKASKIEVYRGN
Description: as §1, §2, §3, §4, §5

[3] = target: T3, Rat recombinant α2,3(N)ST (Rattus norvegicus, UniProt Q02734); test: Sialyltransferase assay with cloned α2,3(N)ST; type: biochemical; settings: for Cloned Sialyltransferase Activities α2,3(N) ST %: Table III, compound 7.5 mM, 100% = 38140 CPM (Galβ1,4GlcNAcβ1,6(3-O-MeGalβ1,3)GalNAcα-O-Bn); for Sialyltransferase activity (%) Cloned α2,3(N)ST: Table I, acceptor 7.5 mM, 100% = 29520 CPM (Galβ1,4GlcNAcβ-O—Al)
T3 construct: purchased Calbiochem
T3 sequence (Q02734 29-374 limits assumed): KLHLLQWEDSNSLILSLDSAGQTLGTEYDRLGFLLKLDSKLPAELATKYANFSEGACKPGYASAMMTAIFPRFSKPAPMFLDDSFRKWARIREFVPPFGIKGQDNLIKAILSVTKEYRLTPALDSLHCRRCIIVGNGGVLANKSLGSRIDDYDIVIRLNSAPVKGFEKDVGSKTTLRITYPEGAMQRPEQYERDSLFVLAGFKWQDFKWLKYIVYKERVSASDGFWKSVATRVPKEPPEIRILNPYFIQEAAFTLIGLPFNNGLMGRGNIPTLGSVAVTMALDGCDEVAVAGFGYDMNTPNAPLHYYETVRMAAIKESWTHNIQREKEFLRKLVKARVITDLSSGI
Description: as §1, §2, §3, §4, §5

Sialyltransferase activity (%) Cloned α2,6(N)ST [1] [%] | Cloned Sialyltransferase Activities α2,3(O) ST % [2] | Cloned Sialyltransferase Activities α2,3(N) ST % [3] [%] | Cloned Sialyltransferase Activities α2,6(N)ST % [1] [%] | Sialyltransferase activity (%) Cloned α2,3(O)ST [2] | Sialyltransferase activity (%) Cloned α2,3(N)ST [3] | SMILES | further results
0 |  |  |  |  |  | CO[C@H]1[C@H](O[C@H]2[C@H](O)[C@@H](CO)O[C@@H](OCc3ccccc3)[C@@H]2NC(C)=O)O[C@H](CO)[C@H](O)[C@@H]1O [2-O-MeGalβ1,3GlcNAcβ-O-Bn] | 
 | 102.9^12% | 7.2 | 11.3 |  |  | CC(=O)N[C@H]1[C@H](OC[C@H]2O[C@H](OCc3ccccc3)[C@H](NC(C)=O)[C@@H](O[C@@H]3O[C@H](CO)[C@H](O)[C@H](O)[C@H]3O)[C@H]2O)O[C@H](CO)[C@@H](O[C@@H]2O[C@H](CO)[C@H](O)[C@H](F)[C@H]2O)[C@@H]1O [3-FGalβ1,4GlcNAcβ1,6(Galβ1,3)GalNAcα-O-Bn] | LNCaPα2,3(O)ST % (LNCaP α2,3(O)ST): 91.5%
8.7 |  |  |  | 3.6% | 1.4% | CO[C@H]1[C@@H](O)[C@@H](CO)O[C@@H](O[C@H]2[C@H](O)[C@@H](NC(C)=O)C(O)O[C@@H]2CO)[C@@H]1O (stereo partly shown) [3-O-MeGalβ1,4GlcNAc] | 
4.4 | 100.0^c % | 4.5 | 6.4 | 100.0% and 100.0^c % | 6.1% | CO[C@H]1[C@@H](O)[C@@H](CO)O[C@@H](O[C@H]2[C@H](O)[C@@H](NC(C)=O)[C@H](OC[C@H]3O[C@H](OCc4ccccc4)[C@H](NC(C)=O)[C@@H](O[C@@H]4O[C@H](CO)[C@H](O)[C@H](O)[C@H]4O)[C@H]3O)O[C@@H]2CO)[C@@H]1O [3-O-MeGalβ1,4GlcNAcβ1,6(Galβ1,3)GalNAcα-O-Bn] | Sialyltransferase activity (%) LNCaP α2,3(O)ST (LNCaP α2,3(O)ST; Table I, acceptor 7.5 mM, 100% = 30930 CPM (3-O-MeGalβ1,4GlcNAcβ1,6(Galβ1,3)GalNAcα-O-Bn)): 100.9% and 100.0% and 100.0^d %; LNCaPα2,3(O)ST % (LNCaP α2,3(O)ST): 100.0^d %
 | 102.1% | 7.9 | 2.7 |  |  | CC(=O)N[C@H]1[C@H](OC[C@H]2O[C@H](OCc3ccccc3)[C@H](NC(C)=O)[C@@H](O[C@@H]3O[C@H](CO)[C@H](O)[C@H](O)[C@H]3O)[C@H]2O)O[C@H](CO)[C@@H](O[C@@H]2O[C@H](CO)[C@H](F)[C@H](O)[C@H]2O)[C@@H]1O [4-FGalβ1,4GlcNAcβ1,6(Galβ1,3)GalNAcα-O-Bn] | 
0 |  |  |  |  | 1.7% | CO[C@H]1O[C@H](CO[C@@H]2O[C@H](COS(=O)(=O)O)[C@@H](O[C@@H]3O[C@H](CO)[C@H](O)[C@H](O)[C@H]3O)[C@H](O[C@@H]3O[C@@H](C)[C@@H](O)[C@@H](O)[C@@H]3O)[C@H]2NC(C)=O)[C@H](O)[C@H](O[C@@H]2O[C@H](CO)[C@H](O)[C@H](O[C@]3(C(=O)O)C[C@H](O)[C@@H](NC(C)=O)[C@H]([C@H](O)[C@H](O)CO)O3)[C@H]2O)[C@H]1NC(C)=O [Galβ1,4(6-O-Sulfo)(Fucα1,3)GlcNAcβ1,6(NeuAcα2,3Galβ1,3)GalNAcα-O-Me] | 
0.9 |  |  |  |  | 50.8% and 50.8^22% | CO[C@H]1O[C@H](CO[C@@H]2O[C@H](COS(=O)(=O)O)[C@@H](O[C@@H]3O[C@H](CO)[C@H](O)[C@H](O)[C@H]3O)[C@H](O)[C@H]2NC(C)=O)[C@H](O)[C@H](O[C@@H]2O[C@H](CO)[C@H](O)[C@H](O[C@]3(C(=O)O)C[C@H](O)[C@@H](NC(C)=O)[C@H]([C@H](O)[C@H](O)CO)O3)[C@H]2O)[C@H]1NC(C)=O [Galβ1,4(6-O-Sulfo)GlcNAcβ1,6(NeuAcα2,3Galβ1,3)GalNAcα-O-Me] | Sialyltransferase activity (%) Cloned α2,3(N)ST ([3]; listed as Galβ1,4(6-O-Sulfo)GlcNAcβ1,6(NeuAcα2,3Galβ1,3)GalNAcα-): 50.8%
7.1 |  |  |  | 133.4% | 19.0% | CO[C@H]1O[C@H](CO[C@@H]2O[C@H](CO)[C@@H](O[C@@H]3O[C@H](CO)[C@H](O)[C@H](O)[C@H]3O)[C@H](O[C@@H]3O[C@@H](C)[C@@H](O)[C@@H](O)[C@@H]3O)[C@H]2NC(C)=O)[C@H](O)[C@H](O[C@@H]2O[C@H](CO)[C@H](O)[C@H](O)[C@H]2O)[C@H]1NC(C)=O [Galβ1,4(Fucα1,3)GlcNAcβ1,6(Galβ1,3)GalNAcα-O-Me] | 
93.3 |  |  |  | 94.4^4% | 100.7% | CC(=O)N[C@H]1[C@H](OC[C@H]2O[C@H](OCc3ccccc3)[C@H](NC(C)=O)[C@@H](O[C@@H]3O[C@H](CO)[C@H](O)[C@H](O)[C@H]3O)[C@H]2O)O[C@H](CO)[C@@H](O[C@@H]2O[C@H](CO)[C@H](O)[C@H](O)[C@H]2O)[C@@H]1O [Galβ1,4GlcNAcβ1,6(Galβ1,3)GalNAcα-O-Bn] | α2,6(N)ST activity at varying acceptor concentration (FIG. 3A) ([1]; lowest concentration tested, 0.15 mM): considerable activity
